Assays:
HCT-116 = assay: cells; conditions: Homo sapiens
A549 = assay: Antiproliferative activity against human A549 cells assessed as reduction in cell viability; assay type: functional, cell-based
[1] = molecular target: T1, Glutaminase kidney isoform, mitochondrial (Homo sapiens, UniProt O94925); assay: Inhibition of GLS1 (unknown origin)
T1 sequence (O94925 whole entry): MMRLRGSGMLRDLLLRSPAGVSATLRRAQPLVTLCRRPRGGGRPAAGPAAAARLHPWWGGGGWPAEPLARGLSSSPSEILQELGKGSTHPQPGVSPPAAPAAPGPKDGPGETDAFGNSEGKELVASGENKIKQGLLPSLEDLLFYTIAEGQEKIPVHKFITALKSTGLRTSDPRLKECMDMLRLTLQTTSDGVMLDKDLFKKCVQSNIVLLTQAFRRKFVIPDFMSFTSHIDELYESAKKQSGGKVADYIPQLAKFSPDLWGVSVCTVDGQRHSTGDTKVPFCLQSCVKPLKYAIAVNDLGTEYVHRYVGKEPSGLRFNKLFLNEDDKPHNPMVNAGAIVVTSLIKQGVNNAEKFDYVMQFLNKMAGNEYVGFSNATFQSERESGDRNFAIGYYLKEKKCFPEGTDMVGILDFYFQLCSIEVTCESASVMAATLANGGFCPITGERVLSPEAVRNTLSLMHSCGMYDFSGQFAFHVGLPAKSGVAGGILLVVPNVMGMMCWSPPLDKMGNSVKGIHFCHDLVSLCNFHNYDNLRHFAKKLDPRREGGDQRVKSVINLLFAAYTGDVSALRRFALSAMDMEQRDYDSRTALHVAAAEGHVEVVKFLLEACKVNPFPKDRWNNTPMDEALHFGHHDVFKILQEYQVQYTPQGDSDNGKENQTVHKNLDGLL

Structure (SMILES)	IC50 (HCT-116)	IC50 (A549)	IC50 [1]
CC(C)c1ccc(CNC(=O)c2cccc(CN3CCN(c4nnc(NC(=O)Cc5ccccc5)s4)CC3)c2)cc1	> 10000 nM	> 10000 nM	
CCCCN1CCC(CNC(=O)c2cccc(COCCC3CCN(c4nnc(NC(=O)Cc5ccccc5)s4)CC3)c2)CC1	1080 nM	1550 nM	160 nM
CC(C)N1CCC(CNC(=O)c2cccc(COCCC3CCN(c4nnc(NC(=O)Cc5ccccc5)s4)CC3)c2)CC1	> 10000 nM	> 10000 nM	
O=C(Cc1ccccc1)Nc1nnc(CCc2ccc(C(=O)N3CCCCC3)cc2)s1	> 10000 nM	> 10000 nM	> 10000 nM
O=C(Cc1ccccc1)Nc1nnc(N2CCC(CCOCc3cccc(C(=O)NCC4CCN(Cc5cc(F)cc(F)c5)CC4)c3)CC2)s1	690 nM	980 nM	126 nM
O=C(Cc1ccccc1)Nc1nnc(N2CCC(CCOCc3cccc(C(=O)N4CCN(c5cccc(F)c5)CC4)c3)CC2)s1	8520 nM	7420 nM	546 nM
Cc1ccc(NC(=O)c2ccc(CN3CCN(c4nnc(NC(=O)Cc5ccccc5)s4)CC3)cc2)cc1	1080 nM	1680 nM	212 nM
O=C(Cc1ccccc1)Nc1nnc(N2CCN(Cc3ccc(C(=O)NCCN4CCCCC4)cc3)CC2)s1	1090 nM	3280 nM	162 nM
CCN(CC)CCNC(=O)c1cccc(COCCC2CCN(c3nnc(NC(=O)Cc4ccccc4)s3)CC2)c1	9030 nM	7510 nM	621 nM
O=C(Cc1ccccc1)Nc1nnc(N2CCN(Cc3ccc(C(=O)NCCNc4ccccc4)cc3)CC2)s1	1090 nM	1220 nM	106 nM
O=C(Cc1ccccc1)Nc1nnc(N2CCC(OCc3ccc(C(=O)NCCN4CCCC4)cc3)CC2)s1	3810 nM	1250 nM	1250 nM
CCCNC(=O)c1ccc(COC2CCN(c3nnc(NC(=O)Cc4ccccc4)s3)CC2)cc1	4080 nM	1080 nM	1080 nM
CN1CCC(CNC(=O)c2cccc(CN3CCN(c4nnc(NC(=O)Cc5ccccc5)s4)CC3)c2)CC1	1560 nM	3960 nM	432 nM
CC(C)N1CCC(CNC(=O)c2ccc(COCCC3CCN(c4nnc(NC(=O)Cc5ccccc5)s4)CC3)cc2)CC1	3050 nM	2240 nM	365 nM
C=CCCC(=O)N1CCC(CNC(=O)c2cccc(COCCC3CCN(c4nnc(NC(=O)Cc5ccccc5)s4)CC3)c2)CC1	4030 nM	3520 nM	350 nM
O=C(Cc1ccccc1)Nc1nnc(N2CCN(Cc3ccc(C(=O)N4CCC(CO)CC4)cc3)CC2)s1	3920 nM	4060 nM	363 nM
O=C(Cc1ccccc1)Nc1nnc(N2CCC(CCOCc3cccc(C(=O)NCCN4CCCC4)c3)CC2)s1	8950 nM	9680 nM	489 nM
CCCNC(=O)c1ccc(CCc2nnc(NC(=O)Cc3ccccc3)s2)cc1	> 10000 nM	> 10000 nM	> 10000 nM
O=C(Cc1ccccc1)Nc1nnc(N2CCN(Cc3cccc(C(=O)NCc4ccc(C(F)(F)F)cc4)c3)CC2)s1	> 10000 nM	> 10000 nM	
O=C(Cc1ccccc1)Nc1cccc(CN2CCN(c3nnc(NC(=O)Cc4ccccc4)s3)CC2)c1	> 10000 nM	> 10000 nM	
O=C(Cc1ccccc1)Nc1nnc(N2CCC(CCOCc3cccc(C(=O)NCCN4CCCCC4)c3)CC2)s1	7050 nM	8520 nM	555 nM
CC(C)CNC(=O)c1ccc(CN2CCN(c3nnc(NC(=O)Cc4ccccc4)s3)CC2)cc1	1090 nM	2530 nM	146 nM
CN1CCC(CNC(=O)c2cccc(COCCC3CCN(c4nnc(NC(=O)Cc5ccccc5)s4)CC3)c2)CC1	8120 nM	9070 nM	802 nM
CCN(CC)CCNC(=O)c1cccc(CN2CCN(c3nnc(NC(=O)Cc4ccccc4)s3)CC2)c1	1490 nM	2420 nM	345 nM
CN1CCN(c2cccc(C(=O)Nc3ccc(CN4CCN(c5nnc(NC(=O)Cc6ccccc6)s5)CC4)cc3)c2)CC1	1260 nM	1050 nM	123 nM
COCCNC(=O)c1ccc(CN2CCN(c3nnc(NC(=O)Cc4ccccc4)s3)CC2)cc1	> 10000 nM	> 10000 nM	> 10000 nM

Structure (SMILES)	IC50 (HCT-116)	IC50 (A549)	IC50 [1]
O=C(Cc1ccccc1)Nc1nnc(CCc2ccc(C(=O)NCCN3CCCC3)cc2)s1	> 10000 nM	> 10000 nM	> 10000 nM
CN1CCC(CNC(=O)c2ccc(CN3CCN(c4nnc(NC(=O)Cc5ccccc5)s4)CC3)cc2)CC1	> 10000 nM	> 10000 nM	> 10000 nM
CCN(CC)CCNC(=O)c1ccc(COCCC2CCN(c3nnc(NC(=O)Cc4ccccc4)s3)CC2)cc1	1200 nM	4380 nM	440 nM
O=C(Cc1ccccc1)Nc1nnc(N2CCN(Cc3ccc(C(=O)NCc4cccc(C(F)(F)F)c4)cc3)CC2)s1	1490 nM	1850 nM	253 nM
CCN1CCC(NC(=O)c2ccc(COC3CCN(c4nnc(NC(=O)Cc5ccccc5)s4)CC3)cc2)CC1	> 10000 nM	> 10000 nM	2550 nM
CCCN1CCC(CNC(=O)c2cccc(COCCC3CCN(c4nnc(NC(=O)Cc5ccccc5)s4)CC3)c2)CC1	3920 nM	2010 nM	260 nM
O=C(Cc1ccccc1)Nc1nnc(N2CCN(Cc3ccc(C(=O)NCCc4ccc(F)cc4)cc3)CC2)s1	570 nM	2040 nM	300 nM
CCCNC(=O)c1ccc(COCCC2CCN(c3nnc(NC(=O)Cc4ccccc4)s3)CC2)cc1	2890 nM	3450 nM	420 nM
Cc1ccccc1CN1CCC(CNC(=O)c2ccc(COCCC3CCN(c4nnc(NC(=O)Cc5ccccc5)s4)CC3)cc2)CC1	810 nM	1260 nM	135 nM
CN1CCN(c2ccc(NC(=O)c3ccc(CN4CCN(c5nnc(NC(=O)Cc6ccccc6)s5)CC4)cc3)cc2)CC1	670 nM	1280 nM	250 nM
O=C(Cc1ccccc1)Nc1nnc(N2CCN(Cc3cccc(C(=O)NCCc4ccc(F)cc4)c3)CC2)s1	> 10000 nM	> 10000 nM	
CCNCCNC(=O)c1ccc(CN2CCN(c3nnc(NC(=O)Cc4ccccc4)s3)CC2)cc1	1280 nM	2260 nM	221 nM
O=C(Cc1ccccc1)Nc1ccc(CN2CCN(c3nnc(NC(=O)Cc4ccccc4)s3)CC2)cc1	> 10000 nM	> 10000 nM	
CCCCNC(=O)c1ccc(COCC2CCN(c3nnc(NC(=O)Cc4ccccc4)s3)CC2)cc1	4980 nM	5840 nM	530 nM
CCN(CC)CCNC(=O)c1ccc(CCc2nnc(NC(=O)Cc3ccccc3)s2)cc1	> 10000 nM	> 10000 nM	> 10000 nM
Cc1cccc(CN(C)C(=O)c2ccc(CN3CCN(c4nnc(NC(=O)Cc5ccccc5)s4)CC3)cc2)c1	> 10000 nM	> 10000 nM	> 1000 nM
O=C(Cc1ccccc1)Nc1nnc(N2CCN(Cc3cccc(C(=O)NCCN4CCCCC4)c3)CC2)s1	1670 nM	2030 nM	212 nM
O=C(Cc1ccccc1)Nc1nnc(N2CCC(CCOCc3ccc(C(=O)NCC4CCN(Cc5cc(F)cc(F)c5)CC4)cc3)CC2)s1	800 nM	1890 nM	120 nM
CCN(CC)CCNC(=O)c1ccc(CN2CCN(c3nnc(NC(=O)Cc4ccccc4)s3)CC2)cc1	2860 nM	2070 nM	264 nM
CN1CCN(c2cccc(C(=O)Nc3cccc(CN4CCN(c5nnc(NC(=O)Cc6ccccc6)s5)CC4)c3)c2)CC1	1190 nM	980 nM	77 nM
CN1CCN(c2ccc(C(=O)Nc3cccc(CN4CCN(c5nnc(NC(=O)Cc6ccccc6)s5)CC4)c3)cc2)CC1	1530 nM	1050 nM	89 nM
CN1CCC(CNC(=O)c2ccc(COC3CCN(c4nnc(NC(=O)Cc5ccccc5)s4)CC3)cc2)CC1	> 10000 nM	> 10000 nM	> 10000 nM
CCCCN1CCC(CNC(=O)c2ccc(COCCC3CCN(c4nnc(NC(=O)Cc5ccccc5)s4)CC3)cc2)CC1	910 nM	1290 nM	120 nM
O=C(Cc1ccccc1)Nc1nnc(N2CCN(Cc3ccc(C(=O)NCCN4CCCC4)cc3)CC2)s1	1660 nM	3650 nM	163 nM
O=C(Cc1ccccc1)Nc1nnc(N2CCN(Cc3ccc(C(=O)NC4CCCC4)cc3)CC2)s1	1490 nM	1090 nM	132 nM
